# Source: EP4559911A1, “NOVEL HETEROCYCLIC COMPOUND AND PHARMACEUTICAL COMPOSITION FOR INHIBITING AUTOTAXIN COMPRISING THE SAME” (Nextgen Bioscience Co., Ltd., priority 2022, dated 2024)
# Biological target: human Autotaxin protein (Homo sapiens, UniProt Q13822)
# Test: Evaluation of the inhibitory activity against human Autotaxin protein (18:1 LysoPC substrate, choline assay kit, absorbance at 570 nm)
# Type: biochemical
# Settings: compound at 500nM; 2 hours at 37 °C; % inhibition = (1 - absorbance test group / absorbance control group) X 100
# Method: Solutions of each compound synthesized (80 uM, 100% dimethyl sulfoxide) were sequentially diluted 5-fold with dimethyl sulfoxide to prepare 6 concentrations. Each concentration of the compound was diluted 2-fold with 1x test buffer (50 mM Tris-Cl (pH 8.0), 5 mM KCl, 1 mM CaCl2, 1 mM MgCl2, 140 mM NaCl, deionized water, 1 mg/mL BSA), and 1 uL (1.25% dimethyl sulfoxide) of this diluted mixture was dispensed into each well of a 96-well clear round-bottom plate. 9 uL of 1x test buffer was added, and 20 uL of 240 nM human autotaxin protein (buffer: 50 mM Tris-HCl, pH 8.0, with 150 mM sodium chloride and 20% glycerol) was added. 10 uL of sonicated 360 uM 18:1 LysoPC (diluted with 1x assay buffer) was added. The reaction was performed for 2 hours in a shaking incubator at 37 °C, and a secondary reaction mixture (choline assay kit, KA1662) (65 uL of 1x assay buffer: 1 uL of choline oxidase: 1 uL of dye probe) was prepared. 60 uL of the secondary reaction mixture was added to the plate where the reaction was performed, and incubated for 30 minutes in a shaker. The absorbance value was measured at a wavelength of 570 nm using a SpectraMax iD3 microplate reader. The percentage inhibition activity value (% inhibition) was calculated by the formula: (1 - absorbance value test group / absorbance value control group) X 100.
row,SMILES,inhibition at 0.5 µM
1,"c1ccc2c(c1)CC(Nc1ncc(-c3nnc(N4CCC(c5c[nH]nn5)C4)o3)cn1)C2 (stereo not drawn) [Example 1, 5-(5-(3-(1H-1,2,3-triazol-4-yl)pyrrolidin-1-yl)-1,3,4-oxadiazol-2-yl)-N-(2,3-dihydro-1H-inden-2-yl)pyrimidin-2-amine]",98%
2,"CC(C)(C)C(=O)OCn1cc(C2CCN(c3nnc(-c4cnc(NC5Cc6cc(F)c(F)cc6C5)nc4)o3)C2)nn1 (stereo not drawn) [Example 2, (4-(1-(5-(2-((5,6-difluoro-2,3-dihydro-1H-inden-2-yl)amino)pyrimidin-5-yl)-1,3,4-oxadiazol-2-yl)pyrrolidin-3-yl)-1H-1,2,3-triazol-1-yl)methyl pivalate]",3%
3,"Fc1cc2c(cc1F)CC(Nc1ncc(-c3nnc(N4CCC(c5c[nH]nn5)C4)o3)cn1)C2 (stereo not drawn) [Example 3, 5-(5-(3-(1H-1,2,3-triazol-4-yl)pyrrolidin-1-yl)-1,3,4-oxadiazol-2-yl)-N-(5,6-difluoro-2,3-dihydro-1H-inden-2-yl)pyrimidin-2-amine]",100%
4,"CC(C)(C)C(=O)OCn1cc(C2CCN(c3nnc(-c4cnc(NC5Cc6cccnc6C5)nc4)o3)C2)nn1 (stereo not drawn) [Example 4, (4-(1-(5-(2-((6,7-dihydro-5H-cyclopenta[b]pyridin-6-yl)amino)pyrimidin-5-yl)-1,3,4-oxadiazol-2-yl)pyrrolidin-3-yl)-1H-1,2,3-triazol-1-yl)methyl pivalate]",1%
5,"CC(C)(C)C(=O)OCn1cc(C2CCN(c3nnc(-c4cnc(NCc5ccc6c(c5)OCO6)nc4)o3)C2)nn1 (stereo not drawn) [Example 5, (4-(1-(5-(2-((benzo[d][1,3]dioxol-5-ylmethyl)amino)pyrimidin-5-yl)-1,3,4-oxadiazol-2-yl)pyrrolidin-3-yl)-1H-1,2,3-triazol-1-yl)methyl pivalate]",7.6%
6,"c1cc2c(cc1CNc1ncc(-c3nnc(N4CCC(c5c[nH]nn5)C4)o3)cn1)OCO2 (stereo not drawn) [Example 6, 5-(5-(3-(1H-1,2,3-triazol-4-yl)pyrrolidin-1-yl)-1,3,4-oxadiazol-2-yl)-N-(benzo[d][1,3]dioxol-5-ylmethyl)pyrimidin-2-amine]",30.4%
7,"c1cnc2c(n1)CC(Nc1ncc(-c3nnc(N4CCC(c5c[nH]nn5)C4)o3)cn1)C2 (stereo not drawn) [Example 7, N-(5-(5-(3-(1H-1,2,3-triazol-4-yl)pyrrolidin-1-yl)-1,3,4-oxadiazol-2-yl)pyrimidin-2-yl)-6,7-dihydro-5H-cyclopenta[b]pyrazin-6-amine]",17%
8,"c1cnc2c(c1)CC(Nc1ncc(-c3nnc(N4CCC(c5c[nH]nn5)C4)o3)cn1)C2 (stereo not drawn) [Example 8, N-(5-(5-(3-(1H-1,2,3-triazol-4-yl)pyrrolidin-1-yl)-1,3,4-oxadiazol-2-yl)pyrimidin-2-yl)-6,7-dihydro-5H-cyclopenta[b]pyridin-6-amine]",49.5%
9,"O=C(/C=C/c1cnc(NC2Cc3cc(F)c(F)cc3C2)nc1)N1CCC(c2c[nH]nn2)C1 (stereo not drawn) [Example 9, (E)-1-(3-(1H-1,2,3-triazol-4-yl)pyrrolidin-1-yl)-3-(2-((5,6-difluoro-2,3-dihydro-1H-inden-2-yl)amino)pyrimidin-5-yl)prop-2-en-1-one]",94.2%
10,"O=C(CCc1cnc(NC2Cc3cc(F)c(F)cc3C2)nc1)N1CCC(c2c[nH]nn2)C1 (stereo not drawn) [Example 10, 1-(3-(1H-1,2,3-triazol-4-yl)pyrrolidin-1-yl)-3-(2-((5,6-difluoro-2,3-dihydro-1H-inden-2-yl)amino)pyrimidin-5-yl)propan-1-one]",18.6%
11,"Clc1cc(Cl)cc(CCNc2ncc(-c3nnc(N4CCC(c5c[nH]nn5)C4)o3)cn2)c1 (stereo not drawn) [Example 11, 5-(5-(3-(1H-1,2,3-triazol-4-yl)pyrrolidin-1-yl)-1,3,4-oxadiazol-2-yl)-N-(3,5-dichlorophenethyl)pyrimidin-2-amine]",41.6%
12,"COc1ccc2c(c1)CC(Nc1ncc(-c3nnc(N4CCC(c5cn(COC(=O)C(C)(C)C)nn5)C4)o3)cn1)C2 (stereo not drawn) [Example 12, (4-(1-(5-(2-((5-methoxy-2,3-dihydro-1H-inden-2-yl)amino)pyrimidin-5-yl)-1,3,4-oxadiazol-2-yl)pyrrolidin-3-yl)-1H-1,2,3-triazol-1-yl)methyl pivalate]",4.1%
13,"COc1ccc2c(c1)CC(Nc1ncc(-c3nnc(N4CCC(c5c[nH]nn5)C4)o3)cn1)C2 (stereo not drawn) [Example 13, 5-(5-(3-(1H-1,2,3-triazol-4-yl)pyrrolidin-1-yl)-1,3,4-oxadiazol-2-yl)-N-(5-methoxy-2,3-dihydro-1H-inden-2-yl)pyrimidin-2-amine]",96.8%
14,"Fc1cc2c(cc1F)CC(Nc1cnc(-c3nnc(N4CCC(c5c[nH]nn5)C4)o3)cn1)C2 (stereo not drawn) [Example 14, 5-(5-(3-(1H-1,2,3-triazol-4-yl)pyrrolidin-1-yl)-1,3,4-oxadiazol-2-yl)-N-(5,6-difluoro-2,3-dihydro-1H-inden-2-yl)pyrazin-2-amine]",23.3%
15,"COC(=O)C1CCN(c2nnc(-c3cnc(NC4Cc5cc(F)c(F)cc5C4)nc3)o2)C1 (stereo not drawn) [Example 15, methyl 1-(5-(2-((5,6-difluoro-2,3-dihydro-1H-inden-2-yl)amino)pyrimidin-5-yl)-1,3,4-oxadiazol-2-yl)pyrrolidine-3-carboxylate]",9.5%
16,"Cc1nc(NC2Cc3cc(F)c(F)cc3C2)ncc1-c1nnc(N2CCC(c3c[nH]nn3)C2)o1 (stereo not drawn) [Example 16, 5-(5-(3-(1H-1,2,3-triazol-4-yl)pyrrolidin-1-yl)-1,3,4-oxadiazol-2-yl)-N-(5,6-difluoro-2,3-dihydro-1H-inden-2-yl)-4-methylpyrimidin-2-amine]",88.1%
17,"Fc1cc2c(cc1F)CC(Nc1ncc(C3CC(N4CCC(c5c[nH]nn5)C4)=NO3)cn1)C2 (stereo not drawn) [Example 17, 5-(3-(3-(1H-1,2,3-triazol-4-yl)pyrrolidin-1-yl)-4,5-dihydroisoxazol-5-yl)-N-(5,6-difluoro-2,3-dihydro-1H-inden-2-yl)pyrimidin-2-amine]",39.5%
18,"Fc1cc2c(cc1F)CC(Nc1ncc(-c3cc(N4CCC(c5c[nH]nn5)C4)no3)cn1)C2 (stereo not drawn) [Example 18, 5-(3-(3-(1H-1,2,3-triazol-4-yl)pyrrolidin-1-yl)isoxazol-5-yl)-N-(5,6-difluoro-2,3-dihydro-1H-inden-2-yl)pyrimidin-2-amine]",95.3%
19,"Brc1ccc2c(c1)CC(Nc1ncc(-c3nnc(N4CCC(c5c[nH]nn5)C4)o3)cn1)C2 (stereo not drawn) [Example 19, 5-(5-(3-(1H-1,2,3-triazol-4-yl)pyrrolidin-1-yl)-1,3,4-oxadiazol-2-yl)-N-(5-bromo-2,3-dihydro-1H-inden-2-yl)pyrimidin-2-amine]",99.7%
20,"O=C(/C=C/c1cnc(NC2Cc3ccccc3C2)nc1)N1CCC(c2c[nH]nn2)C1 (stereo not drawn) [Example 20, (E)-1-(3-(1H-1,2,3-triazol-4-yl)pyrrolidin-1-yl)-3-(2-((2,3-dihydro-1H-inden-2-yl)amino)pyrimidin-5-yl)prop-2-en-1-one]",92.4%
21,"Fc1cc(F)cc(CNc2ncc(-c3nnc(N4CCC(c5c[nH]nn5)C4)o3)cn2)c1 (stereo not drawn) [Example 21, 5-(5-(3-(1H-1,2,3-triazol-4-yl)pyrrolidin-1-yl)-1,3,4-oxadiazol-2-yl)-N-(3,5-difluorobenzyl)pyrimidin-2-amine]",72.5%
22,"O=C(O)C1CCN(c2nnc(-c3cnc(NC4Cc5cc(F)c(F)cc5C4)nc3)o2)C1 (stereo not drawn) [Example 22, 1-(5-(2-((5,6-difluoro-2,3-dihydro-1H-inden-2-yl)amino)pyrimidin-5-yl)-1,3,4-oxadiazol-2-yl)pyrrolidine-3-carboxylic acid]",3.6%
23,"O=c1[nH]nc(C2CCN(c3nnc(-c4cnc(NC5Cc6cc(F)c(F)cc6C5)nc4)o3)C2)o1 (stereo not drawn) [Example 23, 5-(1-(5-(2-((5,6-difluoro-2,3-dihydro-1H-inden-2-yl)amino)pyrimidin-5-yl)-1,3,4-oxadiazol-2-yl)pyrrolidin-3-yl)-1,3,4-oxadiazol-2(3H)-one]",91.6%
24,"COC(=O)CC1CCN(c2nnc(-c3cnc(NC4Cc5cc(F)c(F)cc5C4)nc3)o2)C1 (stereo not drawn) [Example 24, methyl 2-(1-(5-(2-((5,6-difluoro-2,3-dihydro-1H-inden-2-yl)amino)pyrimidin-5-yl)-1,3,4-oxadiazol-2-yl)pyrrolidin-3-yl)acetate]",1%
25,"O=C(O)CC1CCN(c2nnc(-c3cnc(NC4Cc5cc(F)c(F)cc5C4)nc3)o2)C1 (stereo not drawn) [Example 25, 2-(1-(5-(2-((5,6-difluoro-2,3-dihydro-1H-inden-2-yl)amino)pyrimidin-5-yl)-1,3,4-oxadiazol-2-yl)pyrrolidin-3-yl)acetic acid]",1.8%
26,"OC1CCN(c2nnc(-c3cnc(NC4Cc5cc(F)c(F)cc5C4)nc3)o2)C1 (stereo not drawn) [Example 26, 1-(5-(2-((5,6-difluoro-2,3-dihydro-1H-inden-2-yl)amino)pyrimidin-5-yl)-1,3,4-oxadiazol-2-yl)pyrrolidin-3-ol]",1%
27,"CS(=O)(=O)OC1CCN(c2nnc(-c3cnc(NC4Cc5cc(F)c(F)cc5C4)nc3)o2)C1 (stereo not drawn) [Example 27, 1-(5-(2-((5,6-difluoro-2,3-dihydro-1H-inden-2-yl)amino)pyrimidin-5-yl)-1,3,4-oxadiazol-2-yl)pyrrolidin-3-yl methanesulfonate]",12.1%
